Measurements: patent US11331299B2, “Medicinal use of serrulatane diterpenes” (The University of Sydney, priority 2016, dated 2022)
Like-named read-outs stand apart in the source and are kept apart here.

What was measured:
DNMT3B/DNMT3L (h) = DNMT3B/DNMT3L (h) (Homo sapiens, UniProt Q9UBC3); assay: Epigenetic enzyme assay, DNA methyltransferases (DNMTs); format: biochemical; settings: 10 μM; read-out: % Inhibition of Control Values
ATAD2A (h) bromodomain = target: T1, ATAD2A (h) bromodomain (Homo sapiens, UniProt Q6PL18); assay: Epigenetic binding assay, Bromodomain; settings: for inhibition at 10 µM: read-out: % Inhibition of Control Specific Binding
T1 construct: Bromodomain
T1 sequence (Q6PL18 980-1092 limits assumed): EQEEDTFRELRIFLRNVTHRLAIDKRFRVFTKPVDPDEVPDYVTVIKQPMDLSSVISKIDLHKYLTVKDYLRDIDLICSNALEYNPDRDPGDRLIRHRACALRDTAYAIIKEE

UTX (h) = UTX (h) (Homo sapiens, UniProt O15550); assay: Epigenetic enzyme assay, Demethylases (KDMs); format: biochemical; settings: for inhibition at 10 µM: read-out: % Inhibition of Control Values
Chemokine CX3CR1 = target: T2, Chemokine CX3CR1 (Homo sapiens, UniProt P49238); assay: Chemokine CX3CR1 radio ligand binding; settings: assay year 2015
T2 construct: expressed in transfected cells; host or cells: Chem-1 cells
T2 sequence (P49238 1-355): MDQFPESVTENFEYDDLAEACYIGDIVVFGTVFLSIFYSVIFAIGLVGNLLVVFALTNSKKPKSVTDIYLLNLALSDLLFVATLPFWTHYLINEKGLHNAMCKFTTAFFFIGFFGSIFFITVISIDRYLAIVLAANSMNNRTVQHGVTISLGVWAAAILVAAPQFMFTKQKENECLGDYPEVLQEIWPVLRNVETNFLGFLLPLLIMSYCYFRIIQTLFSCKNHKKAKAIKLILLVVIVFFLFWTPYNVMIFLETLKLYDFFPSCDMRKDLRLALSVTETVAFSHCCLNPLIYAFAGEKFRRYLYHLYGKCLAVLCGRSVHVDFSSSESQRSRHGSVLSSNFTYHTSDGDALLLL
Protocol: (§1) The in vitro pharmacological studies were conducted by Eurofins PanLab (Taiwan) using the parameters shown in Table 13 with respect to appropriate literature references.

HL-60 leukemia cells = assay: In vitro cell viability assay (intracellular ATP, 72 hour); format: cell-based; settings: HL-60 (TB) (Leukemia); 10 μM
Phospholipase sPLA2-V = target: T3, Phospholipase sPLA2-V (Homo sapiens, UniProt P39877); assay: Phospholipase sPLA2-V; format: biochemical; settings: assay year 2015, read-out: % Control Response
T3 construct: host or cells: E. coli
T3 sequence (P39877 21-138): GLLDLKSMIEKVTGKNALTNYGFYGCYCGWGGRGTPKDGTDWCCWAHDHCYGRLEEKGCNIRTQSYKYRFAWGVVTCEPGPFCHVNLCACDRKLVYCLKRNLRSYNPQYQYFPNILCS
Protocol: as §1

[1] = tested on: HUVEC endothelium cells (normal cell line); assay: In vitro cell viability assay (intracellular ATP, 72 hour); format: cell-based; settings: HUVEC, Endothelium (Normal); 10 μM
H3K27 ac = assay: Cell-based detection methyl modifications; settings: read-out: % Inhibition of Control Values
L3MBTL1 MBT domain = assay: Epigenetic binding assay, MBT domain; settings: 10 μM
[2] = tested on: 43 cancer cell lines and one normal cell line; assay: In vitro cell viability assay (intracellular ATP, 72 hour); format: cell-based; settings: 10 μM
SP140 (h) bromodomain = target: T4, SP140 (h) bromodomain (Homo sapiens, UniProt Q13342); assay: Epigenetic binding assay, Bromodomain; design: inhibition of binding, 1st / inhibition of binding, 2nd / inhibition of binding, Mean: unit: %; settings: for inhibition at 10 µM: read-out: % Inhibition of Control Specific Binding
T4 construct: SP140 (h) bromodomain

CYP3A = CYP3A (Homo sapiens, UniProt P08684); assay: Cytochrome P450 Inhibition (CYP panel); format: in vitro ADME; settings: probe testosterone; for inhibition at 1 µM: human liver microsomes; for inhibition at 10 µM: liver microsomes
[3] = Table 9, inhibition/concentration-response curve, read-out: IC50
[4] = LL/2 (Non-Small Cell Lung Cancer)
[5] = NCI-H460 (Non-Small Cell Lung Cancer)
[6] = PC-6 (Non-Small Cell Lung Cancer)
[7] = CYP3A (testosterone sub.), Human liver microsomes, read-out: % Inhibition of Control Values

UTX (h), sequence (O15550 whole entry): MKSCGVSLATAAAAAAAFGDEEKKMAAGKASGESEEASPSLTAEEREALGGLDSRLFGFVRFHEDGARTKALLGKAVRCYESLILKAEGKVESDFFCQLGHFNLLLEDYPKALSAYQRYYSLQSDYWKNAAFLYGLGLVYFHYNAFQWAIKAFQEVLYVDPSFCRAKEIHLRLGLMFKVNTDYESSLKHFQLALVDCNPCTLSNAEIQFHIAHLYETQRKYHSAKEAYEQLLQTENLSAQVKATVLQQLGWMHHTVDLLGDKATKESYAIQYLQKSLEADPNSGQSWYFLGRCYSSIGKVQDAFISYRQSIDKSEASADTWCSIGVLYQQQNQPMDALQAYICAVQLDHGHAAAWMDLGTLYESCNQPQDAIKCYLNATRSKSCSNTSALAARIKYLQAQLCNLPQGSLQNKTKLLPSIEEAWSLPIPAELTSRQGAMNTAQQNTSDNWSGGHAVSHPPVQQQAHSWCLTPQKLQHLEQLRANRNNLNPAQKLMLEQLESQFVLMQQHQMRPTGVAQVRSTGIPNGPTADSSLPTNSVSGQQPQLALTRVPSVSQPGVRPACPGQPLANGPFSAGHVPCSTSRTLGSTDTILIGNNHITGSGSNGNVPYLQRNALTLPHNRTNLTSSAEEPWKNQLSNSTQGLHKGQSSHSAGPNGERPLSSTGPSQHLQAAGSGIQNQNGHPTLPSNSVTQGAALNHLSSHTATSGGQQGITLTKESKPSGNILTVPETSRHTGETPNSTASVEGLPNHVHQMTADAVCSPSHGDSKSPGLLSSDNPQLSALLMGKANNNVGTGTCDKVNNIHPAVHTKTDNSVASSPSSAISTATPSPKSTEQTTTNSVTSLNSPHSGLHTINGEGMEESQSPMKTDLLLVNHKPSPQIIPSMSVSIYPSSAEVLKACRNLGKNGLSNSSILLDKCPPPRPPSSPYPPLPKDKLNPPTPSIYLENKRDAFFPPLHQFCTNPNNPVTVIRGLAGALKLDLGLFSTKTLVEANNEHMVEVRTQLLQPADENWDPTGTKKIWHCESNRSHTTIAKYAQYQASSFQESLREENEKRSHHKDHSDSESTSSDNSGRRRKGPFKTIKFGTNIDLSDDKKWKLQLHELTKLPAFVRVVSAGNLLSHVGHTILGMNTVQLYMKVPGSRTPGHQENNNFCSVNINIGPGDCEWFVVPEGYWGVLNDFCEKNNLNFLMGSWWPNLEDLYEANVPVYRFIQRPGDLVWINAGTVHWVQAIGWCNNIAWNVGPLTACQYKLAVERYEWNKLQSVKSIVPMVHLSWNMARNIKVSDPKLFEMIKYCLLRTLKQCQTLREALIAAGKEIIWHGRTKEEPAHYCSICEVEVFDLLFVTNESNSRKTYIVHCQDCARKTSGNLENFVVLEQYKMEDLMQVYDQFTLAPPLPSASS
T4 sequence (Q13342 754-857 limits assumed): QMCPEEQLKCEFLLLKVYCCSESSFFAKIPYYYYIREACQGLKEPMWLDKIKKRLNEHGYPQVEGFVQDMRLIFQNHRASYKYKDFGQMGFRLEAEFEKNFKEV
CYP3A, sequence (P08684 2-503): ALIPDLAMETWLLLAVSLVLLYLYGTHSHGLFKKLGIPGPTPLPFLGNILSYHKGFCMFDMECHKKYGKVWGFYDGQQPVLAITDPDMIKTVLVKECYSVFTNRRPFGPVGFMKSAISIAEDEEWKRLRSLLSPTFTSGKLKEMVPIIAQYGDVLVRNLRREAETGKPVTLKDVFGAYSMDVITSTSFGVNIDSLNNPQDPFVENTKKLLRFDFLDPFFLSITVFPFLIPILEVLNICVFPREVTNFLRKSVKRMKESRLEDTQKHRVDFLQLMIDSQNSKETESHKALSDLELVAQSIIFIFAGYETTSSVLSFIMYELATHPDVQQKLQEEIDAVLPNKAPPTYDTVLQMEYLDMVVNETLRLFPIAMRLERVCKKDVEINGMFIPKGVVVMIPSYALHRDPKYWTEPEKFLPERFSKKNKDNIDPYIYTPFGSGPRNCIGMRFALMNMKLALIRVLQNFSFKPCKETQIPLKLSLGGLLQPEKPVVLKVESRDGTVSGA

## CC(C)=CCC[C@H](CO)[C@@H]1CC[C@@H](C)c2c1cc(C)c(O)c2O [Compound 1, 7,8,18-trihydroxyserrulat-14-ene]
DNMT3B/DNMT3L (h)
  inhibition at 10 µM: 23%
ATAD2A (h) bromodomain; 10 μM
  % Inhibition of Control Specific Binding: significant inhibitory activity
  inhibition at 10 µM: 100%
ATAD2A (h) bromodomain; [3]
  IC50: 3.1 µM
UTX (h); 10 μM
  % Inhibition of Control Values: significant inhibitory activity
  inhibition at 10 µM: 68%
UTX (h); Table 11, inhibition/concentration-response curve
  IC50: 6.7 µM
Chemokine CX3CR1
  percent of control response at 10 µM: -1%
HL-60 leukemia cells
  % Cell growth: −62%
Phospholipase sPLA2-V
  remaining activity at 10 µM: 4%
[1]
  % Cell growth: −90%
H3K27 ac
  inhibition at 10 µM: -16%
L3MBTL1 MBT domain
  % Inhibition of Control Specific Binding: 41%
[2]; 12 cancer cell lines with moderate reduction
  reduction in cell viability: −40 to −80%
[2]; cancer cell lines with potent reduction
  reduction in cell viability: −80 to −100%
[2]; 4T1 (Breast Cancer)
  % Cell growth: 52%
[2]; A375 (Skin)
  % Cell growth: −5%
[2]; A549/ATCC (Non-Small Cell Lung Cancer)
  % Cell growth: −92%
[2]; A-431 (Skin)
  % Cell growth: −89%
[2]; A-498 (Kidney Cancer)
  % Cell growth: −43%
[2]; ACHN (Kidney Cancer)
  % Cell growth: −41%
[2]; B16-F0 (Melanoma)
  % Cell growth: 7%
[2]; BT474 (Breast Cancer)
  % Cell growth: −67%
[2]; CT26.WT (Colon Cancer)
  % Cell growth: 2%
[2]; DLD-1 (Colon Cancer)
  % Cell growth: −65%
[2]; H33HJ-JA1 (Lymphoma)
  % Cell growth: −90%
[2]; HC-4 (Liver Cancer)
  % Cell growth: −91%
[2]; HCT-15 (Colon Cancer)
  % Cell growth: −62%
[2]; HCT-116 (Colon Cancer)
  % Cell growth: −74%
[2]; HT-29 (Colon Cancer)
  % Cell growth: −66%
[2]; Hep3B (Liver Cancer)
  % Cell growth: −84%
[2]; HepG2 (Liver Cancer)
  % Cell growth: −23%
[2]; K-562 (Leukemia)
  % Cell growth: −55%
[2]; KATO III (Stomach)
  % Cell growth: −91%
[2]; [4]
  % Cell growth: −62%
[2]; LNCaP (Prostrate Cancer)
  % Cell growth: −86%
[2]; MCF7 (Breast Cancer)
  % Cell growth: −71%
[2]; MCF-7 AdrR (Breast Cancer)
  % Cell growth: −90%
[2]; MDA-MB-231 (Breast Cancer)
  % Cell growth: −92%
[2]; MDA-MB-468 (Breast Cancer)
  % Cell growth: −92%
[2]; MES-SA (Uterus)
  % Cell growth: −88%
[2]; MIA PaCa-2 (Pancreas)
  % Cell growth: 3%
[2]; MOLT-4 (Leukemia)
  % Cell growth: −94%
[2]; MV-411 (Leukemia)
  % Cell growth: −96%
[2]; [5]
  % Cell growth: −37%
[2]; OVCAR-3 (Ovarian Cancer)
  % Cell growth: −93%
[2]; PANC-1 (Pancreas)
  % Cell growth: 36%
[2]; PC-3 (Prostrate Cancer)
  % Cell growth: 70%
[2]; [6]
  % Cell growth: −62%
[2]; Ramos (Lymphoma)
  % Cell growth: −92%
[2]; SK-MEL-5 (Melanoma)
  % Cell growth: −96%
[2]; SK-N-MC (Brain)
  % Cell growth: −87%
[2]; SK-OV-3 (Ovarian Cancer)
  % Cell growth: −35%
[2]; SW-620 (Colon Cancer)
  % Cell growth: −89%
[2]; T-47D (Breast Cancer)
  % Cell growth: 20%
[2]; U937 (Lymphoma)
  % Cell growth: −86%
[2]; U-87 MG (Brain)
  % Cell growth: 7%
SP140 (h) bromodomain; 10 μM
  % Inhibition of Control Specific Binding: significant inhibitory activity
  inhibition at 10 µM: 84%
SP140 (h) bromodomain; 3.0E−05M
  inhibition of binding, 1st: 102.3
  inhibition of binding, 2nd: 102.3
  inhibition of binding, Mean: 102.3
SP140 (h) bromodomain; 3.0E−06M
  inhibition of binding, 1st: 8.4
  inhibition of binding, 2nd: 11.3
  inhibition of binding, Mean: 9.9
SP140 (h) bromodomain; 3.0E−07M
  inhibition of binding, 1st: −14.1
  inhibition of binding, 2nd: −11.0
  inhibition of binding, Mean: −12.6
SP140 (h) bromodomain; 3.0E−08M
  inhibition of binding, 1st: −9.7
  inhibition of binding, 2nd: −14.6
  inhibition of binding, Mean: −12.1
SP140 (h) bromodomain; 3.0E−09M
  inhibition of binding, 1st: −6.0
  inhibition of binding, 2nd: −8.6
  inhibition of binding, Mean: −7.3
SP140 (h) bromodomain; [3]
  IC50: 3.8 µM
CYP3A; read-out: % inhibition
  inhibition at 1 µM: 7 to 20%
CYP3A; [7]
  inhibition at 1 µM: 7%
  inhibition at 10 µM: 77%

## CC(C)=CCC[C@@H]1C(O)Oc2c(C)cc(O)c3c2[C@H]1CC[C@H]3C (stereo partly shown) [Compound 2, 5,18-epoxyserrulat-14-en-8,18-diol]
DNMT3B/DNMT3L (h)
  inhibition at 10 µM: 27%
ATAD2A (h) bromodomain; 10 μM
  inhibition at 10 µM: 16%
UTX (h); 10 μM
  inhibition at 10 µM: 5%
Chemokine CX3CR1
  percent of control response at 10 µM: 5%
HL-60 leukemia cells
  % Cell growth: −35%
Phospholipase sPLA2-V
  remaining activity at 10 µM: 3%
[1]
  % Cell growth: 97%
H3K27 ac
  inhibition at 10 µM: -12%
L3MBTL1 MBT domain
  % Inhibition of Control Specific Binding: 61%
[2]; remaining cell lines (other than HL-60)
  effect on cell viability: no significant effect
[2]; 4T1 (Breast Cancer)
  % Cell growth: 60%
[2]; A375 (Skin)
  % Cell growth: 74%
[2]; A-431 (Skin)
  % Cell growth: 100%
[2]; A-498 (Kidney Cancer)
  % Cell growth: 91%
[2]; ACHN (Kidney Cancer)
  % Cell growth: 101%
[2]; B16-F0 (Melanoma)
  % Cell growth: 123%
[2]; BT474 (Breast Cancer)
  % Cell growth: 118%
[2]; CT26.WT (Colon Cancer)
  % Cell growth: 120%
[2]; DLD-1 (Colon Cancer)
  % Cell growth: 95%
[2]; H33HJ-JA1 (Lymphoma)
  % Cell growth: 57%
[2]; HC-4 (Liver Cancer)
  % Cell growth: 104%
[2]; HCT-15 (Colon Cancer)
  % Cell growth: 94%
[2]; HCT-116 (Colon Cancer)
  % Cell growth: 81%
[2]; HT-29 (Colon Cancer)
  % Cell growth: 107%
[2]; Hep3B (Liver Cancer)
  % Cell growth: 87%
[2]; HepG2 (Liver Cancer)
  % Cell growth: 95%
[2]; K-562 (Leukemia)
  % Cell growth: 69%
[2]; KATO III (Stomach)
  % Cell growth: 84%
[2]; [4]
  % Cell growth: 105%
[2]; LNCaP (Prostrate Cancer)
  % Cell growth: 73%
[2]; MCF7 (Breast Cancer)
  % Cell growth: 114%
[2]; MCF-7 AdrR (Breast Cancer)
  % Cell growth: 92%
[2]; MDA-MB-231 (Breast Cancer)
  % Cell growth: 97%
[2]; MDA-MB-468 (Breast Cancer)
  % Cell growth: 37%
[2]; MES-SA (Uterus)
  % Cell growth: 75%
[2]; MIA PaCa-2 (Pancreas)
  % Cell growth: 92%
[2]; MOLT-4 (Leukemia)
  % Cell growth: 38%
[2]; MV-411 (Leukemia)
  % Cell growth: 37%
[2]; [5]
  % Cell growth: 88%
[2]; OVCAR-3 (Ovarian Cancer)
  % Cell growth: 67%
[2]; PANC-1 (Pancreas)
  % Cell growth: 87%
[2]; PC-3 (Prostrate Cancer)
  % Cell growth: 99%
[2]; [6]
  % Cell growth: 92%
[2]; Ramos (Lymphoma)
  % Cell growth: 33%
[2]; SK-MEL-5 (Melanoma)
  % Cell growth: 95%
[2]; SK-N-MC (Brain)
  % Cell growth: 73%
[2]; SK-OV-3 (Ovarian Cancer)
  % Cell growth: 82%
[2]; SW-620 (Colon Cancer)
  % Cell growth: 97%
[2]; T-47D (Breast Cancer)
  % Cell growth: 104%
[2]; U937 (Lymphoma)
  % Cell growth: 102%
[2]; U-87 MG (Brain)
  % Cell growth: 101%
SP140 (h) bromodomain; 10 μM
  inhibition at 10 µM: 43%
CYP3A; read-out: % inhibition
  inhibition at 1 µM: 7 to 20%
CYP3A; [7]
  inhibition at 1 µM: 17%
  inhibition at 10 µM: 57%
